In ChEMBL document CHEMBL1201862, “PubChem BioAssay data set” (2004):
Calls of active or inactive are those of the source.

Assays:
Assay type in all cases: functional
[1] = target: T1, High affinity choline transporter 1 (Homo sapiens, UniProt Q9GZV3); experiment: human choline transporter blockers, potency – cell-based, 5-point CRC, membrane potential dye, dose response (AID 504840)
T1 sequence (Q9GZV3 whole entry): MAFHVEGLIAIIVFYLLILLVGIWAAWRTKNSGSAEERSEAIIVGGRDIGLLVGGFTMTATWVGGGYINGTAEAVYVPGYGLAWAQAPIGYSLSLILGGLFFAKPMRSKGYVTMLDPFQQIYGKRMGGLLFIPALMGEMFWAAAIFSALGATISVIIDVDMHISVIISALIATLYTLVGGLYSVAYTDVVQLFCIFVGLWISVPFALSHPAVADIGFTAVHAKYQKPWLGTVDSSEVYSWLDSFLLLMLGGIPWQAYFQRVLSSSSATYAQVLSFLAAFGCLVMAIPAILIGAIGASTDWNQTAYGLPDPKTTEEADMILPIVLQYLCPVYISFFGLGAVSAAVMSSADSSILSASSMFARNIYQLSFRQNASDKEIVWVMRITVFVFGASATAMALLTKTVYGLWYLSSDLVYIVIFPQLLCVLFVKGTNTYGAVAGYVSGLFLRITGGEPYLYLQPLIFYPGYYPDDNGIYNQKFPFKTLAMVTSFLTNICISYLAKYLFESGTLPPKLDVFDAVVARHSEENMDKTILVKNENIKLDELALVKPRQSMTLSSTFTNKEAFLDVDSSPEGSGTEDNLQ

[2] = target: T1, High affinity choline transporter 1; experiment: human choline transporter blockers, potency – cell-based, 10-point CRC, membrane potential dye, dose response (AID 588401);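 note: membrane potential dye fluorescence of choline-evoked depolarization via CHT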
[3] = target: T2, Multidrug resistance protein CDR1 (Candida albicans, UniProt P43071); experiment: inhibition of Nile Red efflux via Candida CDR1 – S. cerevisiae AD1-8u, singleplex, Cherry Pick1 hits, dose response (AID 588606)
T2 sequence (P43071 whole entry, looked up): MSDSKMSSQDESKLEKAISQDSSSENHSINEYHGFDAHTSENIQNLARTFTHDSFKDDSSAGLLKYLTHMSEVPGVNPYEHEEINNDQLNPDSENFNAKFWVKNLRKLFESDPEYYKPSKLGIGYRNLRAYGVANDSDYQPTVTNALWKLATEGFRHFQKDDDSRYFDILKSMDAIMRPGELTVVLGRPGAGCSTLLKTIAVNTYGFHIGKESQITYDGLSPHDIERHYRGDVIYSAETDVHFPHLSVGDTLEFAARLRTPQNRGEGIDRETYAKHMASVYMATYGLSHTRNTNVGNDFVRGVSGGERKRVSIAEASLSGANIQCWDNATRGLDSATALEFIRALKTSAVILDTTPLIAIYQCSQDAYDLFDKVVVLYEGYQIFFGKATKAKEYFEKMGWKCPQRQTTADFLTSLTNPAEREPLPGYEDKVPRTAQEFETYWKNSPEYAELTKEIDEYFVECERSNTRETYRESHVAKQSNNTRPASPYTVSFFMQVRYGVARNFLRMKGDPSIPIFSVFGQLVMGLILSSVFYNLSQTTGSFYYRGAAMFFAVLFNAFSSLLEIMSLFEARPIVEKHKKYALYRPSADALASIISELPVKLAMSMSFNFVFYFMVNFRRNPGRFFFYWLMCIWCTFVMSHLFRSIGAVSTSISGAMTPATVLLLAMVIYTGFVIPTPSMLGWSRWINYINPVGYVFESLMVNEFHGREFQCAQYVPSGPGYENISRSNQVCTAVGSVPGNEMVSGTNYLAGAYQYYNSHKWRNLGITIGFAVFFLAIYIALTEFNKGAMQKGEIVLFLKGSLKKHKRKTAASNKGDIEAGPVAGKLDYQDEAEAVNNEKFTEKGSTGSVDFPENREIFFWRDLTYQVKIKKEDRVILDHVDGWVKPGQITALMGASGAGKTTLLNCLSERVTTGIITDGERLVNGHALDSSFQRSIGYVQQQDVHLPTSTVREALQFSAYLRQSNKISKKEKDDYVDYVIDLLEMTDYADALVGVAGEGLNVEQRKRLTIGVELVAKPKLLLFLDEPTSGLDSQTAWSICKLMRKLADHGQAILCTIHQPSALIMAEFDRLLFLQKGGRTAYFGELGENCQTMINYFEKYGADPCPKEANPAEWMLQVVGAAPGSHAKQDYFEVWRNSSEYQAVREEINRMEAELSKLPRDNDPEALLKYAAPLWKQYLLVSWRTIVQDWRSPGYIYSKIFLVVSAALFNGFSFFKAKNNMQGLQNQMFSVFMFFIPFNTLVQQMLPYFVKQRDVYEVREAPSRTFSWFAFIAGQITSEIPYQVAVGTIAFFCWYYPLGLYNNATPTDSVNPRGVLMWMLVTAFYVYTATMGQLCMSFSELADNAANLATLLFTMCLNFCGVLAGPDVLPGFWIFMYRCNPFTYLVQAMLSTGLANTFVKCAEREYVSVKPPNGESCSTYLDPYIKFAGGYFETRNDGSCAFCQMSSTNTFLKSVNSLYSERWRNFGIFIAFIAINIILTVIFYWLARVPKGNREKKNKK

[4] = target: Benomyl/methotrexate resistance protein (Candida albicans, UniProt P28873); experiment: Candida albicans Mdr1 pump inhibition curves – singleplex, Cherry Pick1 hits, dose response (AID 588608)
Benomyl/methotrexate resistance protein, sequence (P28873 whole entry): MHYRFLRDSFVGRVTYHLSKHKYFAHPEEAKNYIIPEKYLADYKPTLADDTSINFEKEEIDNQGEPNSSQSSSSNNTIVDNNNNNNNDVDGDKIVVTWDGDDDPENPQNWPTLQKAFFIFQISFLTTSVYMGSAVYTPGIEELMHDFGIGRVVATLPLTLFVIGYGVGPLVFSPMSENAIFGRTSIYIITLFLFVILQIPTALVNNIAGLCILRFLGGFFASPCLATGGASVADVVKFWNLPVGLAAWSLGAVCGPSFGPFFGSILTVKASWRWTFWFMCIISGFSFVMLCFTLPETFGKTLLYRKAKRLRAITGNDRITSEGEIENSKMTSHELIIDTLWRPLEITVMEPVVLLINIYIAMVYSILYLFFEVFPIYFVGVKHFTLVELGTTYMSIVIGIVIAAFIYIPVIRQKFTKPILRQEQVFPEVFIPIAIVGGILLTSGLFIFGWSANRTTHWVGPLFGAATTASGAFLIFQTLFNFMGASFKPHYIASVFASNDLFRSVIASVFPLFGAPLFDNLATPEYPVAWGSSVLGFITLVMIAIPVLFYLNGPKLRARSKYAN

[5] = target: T3, Multidrug resistance protein CDR2 (Candida albicans (strain SC5314 / ATCC MYA-2876) (Yeast), UniProt P78595); experiment: blockers of Nile Red efflux by Candida CDR2 – S. cerevisiae AD1-8u, singleplex, Cherry Pick2 set, dose response (AID 623994); conditions: read-out: EC50_MICROM
T3 sequence (P78595 whole entry): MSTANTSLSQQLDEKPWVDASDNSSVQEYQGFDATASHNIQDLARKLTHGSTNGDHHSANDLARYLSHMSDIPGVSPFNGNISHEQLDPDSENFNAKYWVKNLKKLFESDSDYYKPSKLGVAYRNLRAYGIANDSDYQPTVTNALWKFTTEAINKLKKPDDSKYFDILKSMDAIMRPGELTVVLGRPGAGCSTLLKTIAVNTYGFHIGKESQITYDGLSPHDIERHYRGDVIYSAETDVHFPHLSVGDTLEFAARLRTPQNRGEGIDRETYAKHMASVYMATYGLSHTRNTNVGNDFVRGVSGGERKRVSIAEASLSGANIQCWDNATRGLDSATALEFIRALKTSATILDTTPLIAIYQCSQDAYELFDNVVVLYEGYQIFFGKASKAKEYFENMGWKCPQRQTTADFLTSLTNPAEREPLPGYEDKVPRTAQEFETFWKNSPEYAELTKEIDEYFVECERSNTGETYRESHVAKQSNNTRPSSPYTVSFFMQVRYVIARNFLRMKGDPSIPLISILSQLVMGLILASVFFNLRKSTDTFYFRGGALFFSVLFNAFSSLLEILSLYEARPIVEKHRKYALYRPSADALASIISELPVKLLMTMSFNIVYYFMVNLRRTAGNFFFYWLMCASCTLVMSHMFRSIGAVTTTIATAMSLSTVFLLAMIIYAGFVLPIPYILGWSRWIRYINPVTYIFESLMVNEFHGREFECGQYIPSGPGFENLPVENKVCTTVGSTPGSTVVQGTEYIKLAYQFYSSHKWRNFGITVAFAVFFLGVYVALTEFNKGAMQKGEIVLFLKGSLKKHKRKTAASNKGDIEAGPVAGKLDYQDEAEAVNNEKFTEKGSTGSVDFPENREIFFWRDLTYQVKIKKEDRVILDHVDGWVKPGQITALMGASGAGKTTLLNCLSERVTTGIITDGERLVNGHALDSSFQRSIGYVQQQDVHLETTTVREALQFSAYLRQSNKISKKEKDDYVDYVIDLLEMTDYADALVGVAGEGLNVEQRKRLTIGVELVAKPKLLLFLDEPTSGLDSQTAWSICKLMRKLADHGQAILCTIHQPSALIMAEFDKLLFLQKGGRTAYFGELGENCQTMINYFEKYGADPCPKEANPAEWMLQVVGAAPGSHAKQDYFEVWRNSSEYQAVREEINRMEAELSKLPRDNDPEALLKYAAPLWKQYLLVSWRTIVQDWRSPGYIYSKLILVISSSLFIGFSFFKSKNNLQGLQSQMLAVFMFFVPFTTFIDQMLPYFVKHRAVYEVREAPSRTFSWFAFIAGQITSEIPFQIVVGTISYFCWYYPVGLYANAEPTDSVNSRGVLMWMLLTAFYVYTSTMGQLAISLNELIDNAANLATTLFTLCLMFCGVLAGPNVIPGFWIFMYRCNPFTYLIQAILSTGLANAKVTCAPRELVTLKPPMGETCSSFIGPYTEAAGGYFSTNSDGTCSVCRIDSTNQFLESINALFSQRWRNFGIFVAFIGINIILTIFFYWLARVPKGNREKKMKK

[6] = target: T3, Multidrug resistance protein CDR2; experiment: inhibition of Nile Red efflux via Candida CDR2 – S. cerevisiae AD1-8u, singleplex, Cherry Pick1 hits, dose response (AID 588604)
[7] = target: T2, Multidrug resistance protein CDR1; experiment: Candida albicans Cdr1 pump inhibition curves – singleplex, Cherry Pick2 set, dose response (AID 623996); conditions: read-out: EC50_MICROM

| IC50 [1] | IC50 [2] | Compound | EC50 [3] | EC50 [4] | EC50 [5] | EC50 [6] | EC50 [7] |
| --- | --- | --- | --- | --- | --- | --- | --- |
| 1.45 µM (active) | 0.501 µM (active) | CCOCCCNS(=O)(=O)c1ccc(NC(=O)c2ccc([N+](=O)[O-])cc2Cl)cc1 | – | – | – | – | – |
| – | – | COc1ccc2sc(-c3ccccc3OC)c(-c3ccc(OCCN(C)C)cc3)c2c1 | 13.3 µM (active) | 10.5 µM (active) | 5.43 µM (active) | 10.2 µM (active) | 20.1 µM (active) |
